Source: patent publication US20100015058A1, “RADIOLABELED BBN-RGD HETERODIMERS FOR CANCER TARGETING” (STANFORD UNIVERSITY, priority 2008, published 2010)

Tests used:
in vivo [1] = assay: in vivo; parameters: species or system mice; conditions: BALB/c, mouse, iv, 370 kBq, total radioactivity, pancreatic uptake
Protocol: All mice were sacrificed at 1 h after injection of the tracer. Blood, tumor, and major organs and tissues were collected and wet-weighed. Stomach and intestines were cleaned of their contents in this experiment. The radioactivity in the tissue was measured using a g-counter (Packard). The results were presented as percentage injected dose per gram of tissue (% ID/g). Values were expressed as mean 6 SD (n=4/group).

in vivo [2] = assay: in vivo; parameters: species or system mice; conditions: female, BALB/c, mouse, iv, 3.7 MBq, total radioactivity
Protocol: The 4T1 murine breast cancer cell line was purchased from American Type Culture Collection and grown in RMPI 1640 medium (Invitrogen Corp.) supplemented with 10% (v/v) fetal bovine serum (Invitrogen) at 37° C. with 5% CO2. The 4T1 tumor model was generated by subcutaneous injection of 5×10^6 tumor cells into the left front flank of female normal BALB/c mice (Harlan).
Five-minute static PET images were then acquired at 2 h after injection (n=3/group).

Work on `CSCC[C@H](NC(=O)[C@H](CC(C)C)NC(=O)[C@H](Cc1c[nH]cn1)NC(=O)CNC(=O)[C@@H](NC(=O)[C@H](C)NC(=O)[C@H](Cc1c[nH]c2ccccc12)NC(=O)[C@H](CCC(N)=O)NC(=O)CCCCCNC(=O)CC[C@H](NC(=S)Nc1ccc(C[C@H]2CN(CC(=O)O)CCN(CC(=O)O)CCN2CC(=O)O)cc1)C(=O)NCCCC[C@@H]1NC(=O)[C@@H](Cc2ccc(O)cc2)NC(=O)[C@H](CC(=O)O)NC(=O)CNC(=O)[C@H](CCCNC(=N)N)NC1=O)C(C)C)C(N)=O` [^64Cu-NOTA-RGD-BBN, metal not drawn] yielded a tissue uptake at 1 h (in vivo [1]) of 7.03 ± 1.96 %ID/g and a tissue uptake at 2 h (in vivo [2]) of 1.88 ± 0.28 %ID/g.
